Experimental data from patent US20180028622A1, “TREATMENT OF OSTEOPOROSIS” (Entera Bio Ltd., priority 2015, published 2018).
Where two headings read alike, the source gives them in different places.

Columns and labels:
[1] = Dissolution test of tablets in simulated gastric buffer, released SNAC by HPLC; assay type: physicochemical; conditions: tablet with 100 mg sodium bicarbonate vs tablet without; simulated gastric buffer pH 2.0, 37° C.
Protocol: The tablets were in a form of a homogeneous mixture.
Each tablet formulation was subjected to a dissolution test in 100 ml of simulated gastric buffer (without pepsin), pH 2.0, at 37° C., according to USP 23 Apparatus 2 (paddle) with 50 rotations per minute. The amount of released SNAC in each sample was determined chromatographically, using an HPLC apparatus with Cosmosil™ 5 C18-MS-II (4.6 ID×250 mm) column. Mobile phase consisted of 50% acetonitrile and 50% phosphoric acid solution (0.1%). Flow rate was 1 ml/minute and injection volume was 25 μl. Amount of released SNAC was calculated as a percentage of the amount of SNAC in the formulation.

[2] = system: cAMP, a known marker of PTH activity; test: Plasma cAMP levels after oral or subcutaneous teriparatide; assay type: in vivo, human
Protocol: In addition, plasma levels of cAMP, a known marker of PTH activity, were determined in order to confirm biological activity of administered PTH. cAMP plasma levels were measured following oral administration of 680 μg teriparatide or subcutaneous injection of 20 μg teriparatide, as described hereinabove.

[3] = Phase I clinical study of oral teriparatide formulations vs subcutaneous injection, plasma PTH(1-34); assay type: in vivo, human
Protocol: A Phase I clinical study of exemplary oral formulations comprising teriparatide (parathyroid hormone (1-34)) was conducted at the Hadassah Clinical Research Center. 42 healthy volunteers were included throughout the study.
The formulation was composed of teriparatide (200, 400, 680, 1400 or 1800 μg), SNAC (sodium 8-N-(2-hydroxybenzoyl) aminocaprylate), soybean trypsin inhibitor and magnesium stearate.
Tablets were administered in the morning after an 8-hour overnight fast and immediately followed by 150 ml of water. At each visit a standard meal was provided 3 hours after drug administration.
To determine parathyroid hormone concentrations, blood samples (4 ml each) were drawn via an indwelling catheter from the forearm vein at predetermined time points. The cannula was flushed with 1.5 ml normal saline after each sampling. In addition, to avoid sample dilution, 1 ml of blood was drawn and discarded before the next sample. The blood samples were taken at following times: baseline (predose), 15 minutes, 30 minutes, 45 minutes, 60 minutes, 75 minutes, 90 minutes, 105 minutes, 2 hours, 3 hours, 4 hours and 5 hours post-administration. Each blood sample was collected into a single tube containing EDTA (ethylenediaminetetraacetic acid) and placed on ice. Within 15 minutes of blood collection, samples were centrifuged for 10 minutes at 4° C. (2500 rotations per minute) and the plasma was separated and divided into two or three aliquots. Each aliquot was transferred into appropriately labeled polypropylene tubes and stored at approximately −20° C. pending analysis. PTH(1-34) levels were measured using an IDS-iSYS automated assay for the measurement of intact PTH(1-34) in human plasma or serum.
Oral administration of teriparatide was performed as described hereinabove at doses of 200, 400, 680, 1400 or 1800 μg. The Cmax of PTH(1-34) for each orally administered dose was compared with the Cmax of PTH(1-34) for subcutaneous injection of 20 μg teriparatide.

[4] = Pharmacokinetic study of oral teriparatide tablet with water or sodium bicarbonate solution; assay type: in vivo, human; conditions: oral tablet 0.75 mg with 150 ml of 3 mg/ml sodium bicarbonate solution
Protocol: An open label comparative pharmacokinetic study was performed on ten healthy volunteers. On different visits, each volunteer received the same oral tablet containing 0.75 mg of teriparatide, a recombinant form of parathyroid hormone (1-34) (PTH(1-34)). In the first visit, the tablet was administered with 150 ml water, whereas in the second visit the tablet was administered with 150 ml of 3 mg/ml sodium bicarbonate aqueous solution.
The formulation was composed of teriparatide (0.75 mg), SNAC (sodium 8-N-(2-hydroxybenzoyl) aminocaprylate), soybean trypsin inhibitor (SBTI) and a small amount of magnesium stearate.
Tablets were administered in the morning after an 8-hour overnight fast. At each visit a standard meal was provided 3 hours after drug administration. […] There was a two week period between the two visits.
To determine PTH(1-34) concentrations, blood samples were drawn and PTH(1-34) levels were measured using an IDS-iSYS automated assay, using procedures described in Example 1 hereinabove. Relative absorption was determined based on the AUC (area under curve) parameter.

[5] = Open label pharmacokinetic study of oral teriparatide tablet, two visits; assay type: in vivo, human; conditions: for Tmax: human, plasma, po, 0.75 mg; for Tmax / Cmax after 1st administration / Cmax after 2nd administration: oral tablet 0.75 mg teriparatide with SNAC and SBTI
Protocol: An open label comparative pharmacokinetic study was performed in healthy volunteers over the course of 3 months. Each volunteer received—in each of two visits—the same oral tablet containing 0.75 mg of teriparatide, a recombinant form of parathyroid hormone (1-34).
The formulation was composed of teriparatide (0.75 mg), SNAC (sodium 8-N-(2-hydroxybenzoyl)aminocaprylate), soybean trypsin inhibitor (SBTI) and a small amount of magnesium stearate.
Tablets were administered in the morning after an 8-hour overnight fast and immediately followed by 150 ml of water. At each visit a standard meal was provided 3 hours after drug administration. […] There was a two weeks period between the visits.
To determine parathyroid hormone(1-34) (PTH(1-34)) concentrations, blood samples (4 ml each) were drawn via an indwelling catheter from the forearm vein at predetermined time points during each visit. The cannula was flushed with 1.5 ml normal saline after each sampling. In addition, to avoid sample dilution, 1 ml of blood was drawn and discarded before the next sample. The blood samples were taken at following times: baseline (predose), 10 minutes, 15 minutes, 20 minutes, 30 minutes, 45 minutes, 60 minutes, 75 minutes, 90 minutes, 105 minutes, 2 hours, 3 hours, 4 hours and 5 hours post-administration. Each blood sample was collected into a single tube containing EDTA (ethylenediaminetetraacetic acid) and placed on ice. Within 15 minutes of blood collection, samples were centrifuged for 10 minutes at 4° C. (2500 rotations per minute) and the plasma was separated and divided into two or three aliquots. Each aliquot was transferred into appropriately labeled polypropylene tubes and stored at approximately −20° C. pending analysis. PTH(1-34) levels were measured using an IDS-iSYS automated assay for the measurement of intact PTH(1-34) in human plasma or serum.

O=C(O)CCCCCCCNC(=O)c1ccccc1O [SNAC, sodium 8-N-(2-hydroxybenzoyl)aminocaprylate]
dissolution (release) of SNAC from tablet [1]: considerably enhanced the dissolution

CC[C@H](C)[C@H](NC(=O)[C@H](CCC(=O)O)NC(=O)[C@H](CO)NC(=O)[C@@H](NC(=O)[C@@H](N)CO)C(C)C)C(=O)N[C@@H](CCC(N)=O)C(=O)N[C@@H](CC(C)C)C(=O)N[C@@H](CCSC)C(=O)N[C@@H](Cc1cnc[nH]1)C(=O)N[C@@H](CC(N)=O)C(=O)N[C@@H](CC(C)C)C(=O)NCC(=O)N[C@@H](CCCCN)C(=O)N[C@@H](Cc1cnc[nH]1)C(=O)N[C@@H](CC(C)C)C(=O)N[C@@H](CC(N)=O)C(=O)N[C@@H](CO)C(=O)N[C@@H](CCSC)C(=O)N[C@@H](CCC(=O)O)C(=O)N[C@@H](CCCN=C(N)N)C(=O)N[C@H](C(=O)N[C@@H](CCC(=O)O)C(=O)N[C@@H](Cc1c[nH]c2ccccc12)C(=O)N[C@@H](CC(C)C)C(=O)N[C@@H](CCCN=C(N)N)C(=O)N[C@@H](CCCCN)C(=O)N[C@@H](CCCCN)C(=O)N[C@@H](CC(C)C)C(=O)N[C@@H](CCC(N)=O)C(=O)N[C@@H](CC(=O)O)C(=O)N[C@H](C(=O)N[C@@H](Cc1cnc[nH]1)C(=O)N[C@@H](CC(N)=O)C(=O)N[C@@H](Cc1ccccc1)C(=O)O)C(C)C)C(C)C [teriparatide]
plasma cAMP levels ([2]; oral administration of 680 μg): increased plasma cAMP levels to a similar degree
plasma cAMP levels ([2]; subcutaneous administration of 20 μg): increased plasma cAMP levels to a similar degree
decline of PTH levels following oral administration compared with subcutaneous administration ([3]; oral 1800 μg vs subcutaneous 20 μg): declined considerably more rapidly
Cmax of PTH(1-34) following oral administration, relation to dose ([3]; oral 200, 400, 680, 1400 or 1800 μg): proportional to the dose
oral dose providing a Cmax equivalent to subcutaneous administration of 20 μg teriparatide ([3]; oral tablet with SNAC and soybean trypsin inhibitor): roughly 750 μg
increase of absorption (AUC) in comparison with co-administration with water [4]: about 35%
Tmax ([5]; subject A, fasted, plasma PTH(1-34), read-out: Tmax after 1st administration (converted)): 15 min
Tmax ([5]; subject A, two weeks after 1st, read-out: Tmax after 2nd administration (converted)): 20 min
Tmax ([5]; subject B, fasted, plasma PTH(1-34), read-out: Tmax after 1st administration (converted)): 10 min
Tmax ([5]; subject B, two weeks after 1st, read-out: Tmax after 2nd administration (converted)): 20 min
Tmax ([5]; subject C, fasted, plasma PTH(1-34), read-out: Tmax after 1st administration (converted)): 10 min
Tmax ([5]; subject C, two weeks after 1st, read-out: Tmax after 2nd administration (converted)): 20 min
time for plasma levels to return to baseline levels after tablet administration ([5]; oral tablet 0.75 mg): ≤ 60 min
Cmax between different administrations in a given subject ([5]; oral tablet 0.75 mg, two administrations two weeks apart): relatively constant
Cmax after 1st administration ([5]; subject A, fasted, plasma PTH(1-34)): 195 picogram/ml
Cmax after 2nd administration ([5]; subject A, two weeks after 1st): 283 picogram/ml
Cmax after 1st administration ([5]; subject B, fasted, plasma PTH(1-34)): 124 picogram/ml
Cmax after 2nd administration ([5]; subject B, two weeks after 1st): 116 picogram/ml
Cmax after 1st administration ([5]; subject C, fasted, plasma PTH(1-34)): 35 picogram/ml
Cmax after 2nd administration ([5]; subject C, two weeks after 1st): 36 picogram/ml
